Measured values as given in ChEMBL document CHEMBL1909046, “DrugMatrix in vitro pharmacology data”.

Assays:
Adenosine receptor A3 = target: T1, Adenosine receptor A3 (Homo sapiens, UniProt P0DMS8); format: cell membranes, CHO-K1, Membrane; conditions: for Ki: read-out: Ki;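 as to all read-outs here: radioligand binding assay with AB-MECA serving as the labeled ligand; in other assays of this panel Not Active means under 50% inhibition at 10 µM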
T1 sequence (P0DMS8 whole entry): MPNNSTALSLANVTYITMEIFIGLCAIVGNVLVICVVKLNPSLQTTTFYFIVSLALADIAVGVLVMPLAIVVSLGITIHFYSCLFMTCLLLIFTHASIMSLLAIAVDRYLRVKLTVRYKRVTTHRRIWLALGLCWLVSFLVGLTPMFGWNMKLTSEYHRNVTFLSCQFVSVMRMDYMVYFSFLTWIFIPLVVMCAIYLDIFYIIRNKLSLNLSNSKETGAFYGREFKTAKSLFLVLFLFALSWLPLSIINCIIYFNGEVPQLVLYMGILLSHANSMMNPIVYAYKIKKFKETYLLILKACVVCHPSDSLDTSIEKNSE

[1] = DRUGMATRIX: Nicotinic Acetylcholine radioligand binding (ligand: [125I] Epibatidine); format: cell membranes, Membrane; conditions: imr-32; Not Active = under 50% inhibition at 10 µM
Glycine receptor = Glycine receptor (Rattus norvegicus, UniProt P22771+P24524+P07727+P20781); format: cell membranes, Wistar, Spinal cord, Membrane; also: in other assays of this panel Not Active means under 50% inhibition at 10 µM
[2] = target: Vascular endothelial growth factor receptor 1 (Homo sapiens, UniProt P17948); format: cell-based; conditions: huvec; also: in other assays of this panel Not Active means under 50% inhibition at 10 µM
Sequence of Vascular endothelial growth factor receptor 1 (P17948 whole entry): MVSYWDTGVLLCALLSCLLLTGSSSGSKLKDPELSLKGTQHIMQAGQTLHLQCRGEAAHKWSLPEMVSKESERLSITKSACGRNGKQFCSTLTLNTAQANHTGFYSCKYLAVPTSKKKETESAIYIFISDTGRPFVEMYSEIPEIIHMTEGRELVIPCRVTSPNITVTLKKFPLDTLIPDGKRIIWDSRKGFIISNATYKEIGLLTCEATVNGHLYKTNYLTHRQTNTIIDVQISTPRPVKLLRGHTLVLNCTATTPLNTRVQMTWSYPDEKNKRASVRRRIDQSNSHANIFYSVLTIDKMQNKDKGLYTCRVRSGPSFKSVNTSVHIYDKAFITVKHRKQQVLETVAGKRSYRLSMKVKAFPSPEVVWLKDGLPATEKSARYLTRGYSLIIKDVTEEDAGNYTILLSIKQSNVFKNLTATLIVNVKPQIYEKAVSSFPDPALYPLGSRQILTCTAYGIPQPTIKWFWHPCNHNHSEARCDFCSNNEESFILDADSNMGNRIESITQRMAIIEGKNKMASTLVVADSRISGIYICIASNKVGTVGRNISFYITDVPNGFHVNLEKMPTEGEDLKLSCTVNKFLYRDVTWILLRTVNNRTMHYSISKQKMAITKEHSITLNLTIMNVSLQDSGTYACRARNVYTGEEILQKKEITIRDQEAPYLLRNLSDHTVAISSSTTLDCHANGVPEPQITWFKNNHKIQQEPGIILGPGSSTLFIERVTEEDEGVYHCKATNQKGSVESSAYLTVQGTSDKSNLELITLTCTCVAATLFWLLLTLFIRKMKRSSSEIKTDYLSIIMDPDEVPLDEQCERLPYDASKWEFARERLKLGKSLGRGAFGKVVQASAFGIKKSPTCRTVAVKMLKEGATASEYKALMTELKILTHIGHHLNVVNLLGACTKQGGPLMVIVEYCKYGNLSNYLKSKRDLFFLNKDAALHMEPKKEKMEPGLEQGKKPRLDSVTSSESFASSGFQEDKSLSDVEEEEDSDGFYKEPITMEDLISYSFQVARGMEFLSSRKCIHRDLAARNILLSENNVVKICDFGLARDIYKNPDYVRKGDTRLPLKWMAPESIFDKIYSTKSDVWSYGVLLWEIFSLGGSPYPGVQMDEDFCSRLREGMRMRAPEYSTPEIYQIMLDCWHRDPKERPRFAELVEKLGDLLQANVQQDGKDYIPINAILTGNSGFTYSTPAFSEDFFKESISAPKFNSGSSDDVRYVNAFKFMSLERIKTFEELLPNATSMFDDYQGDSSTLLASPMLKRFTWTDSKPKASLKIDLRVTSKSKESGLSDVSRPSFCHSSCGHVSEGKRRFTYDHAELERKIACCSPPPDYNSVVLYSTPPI

[3] = target: Epidermal growth factor receptor (Homo sapiens, UniProt P00533); assay: DRUGMATRIX: Protein Tyrosine Kinase, EGF Receptor enzyme inhibition (substrate: Poly(Glu:Tyr)); format: cell-based, Insect cells; conditions: Not Active = under 50% inhibition at 10 µM
Sequence of Epidermal growth factor receptor (P00533 whole entry): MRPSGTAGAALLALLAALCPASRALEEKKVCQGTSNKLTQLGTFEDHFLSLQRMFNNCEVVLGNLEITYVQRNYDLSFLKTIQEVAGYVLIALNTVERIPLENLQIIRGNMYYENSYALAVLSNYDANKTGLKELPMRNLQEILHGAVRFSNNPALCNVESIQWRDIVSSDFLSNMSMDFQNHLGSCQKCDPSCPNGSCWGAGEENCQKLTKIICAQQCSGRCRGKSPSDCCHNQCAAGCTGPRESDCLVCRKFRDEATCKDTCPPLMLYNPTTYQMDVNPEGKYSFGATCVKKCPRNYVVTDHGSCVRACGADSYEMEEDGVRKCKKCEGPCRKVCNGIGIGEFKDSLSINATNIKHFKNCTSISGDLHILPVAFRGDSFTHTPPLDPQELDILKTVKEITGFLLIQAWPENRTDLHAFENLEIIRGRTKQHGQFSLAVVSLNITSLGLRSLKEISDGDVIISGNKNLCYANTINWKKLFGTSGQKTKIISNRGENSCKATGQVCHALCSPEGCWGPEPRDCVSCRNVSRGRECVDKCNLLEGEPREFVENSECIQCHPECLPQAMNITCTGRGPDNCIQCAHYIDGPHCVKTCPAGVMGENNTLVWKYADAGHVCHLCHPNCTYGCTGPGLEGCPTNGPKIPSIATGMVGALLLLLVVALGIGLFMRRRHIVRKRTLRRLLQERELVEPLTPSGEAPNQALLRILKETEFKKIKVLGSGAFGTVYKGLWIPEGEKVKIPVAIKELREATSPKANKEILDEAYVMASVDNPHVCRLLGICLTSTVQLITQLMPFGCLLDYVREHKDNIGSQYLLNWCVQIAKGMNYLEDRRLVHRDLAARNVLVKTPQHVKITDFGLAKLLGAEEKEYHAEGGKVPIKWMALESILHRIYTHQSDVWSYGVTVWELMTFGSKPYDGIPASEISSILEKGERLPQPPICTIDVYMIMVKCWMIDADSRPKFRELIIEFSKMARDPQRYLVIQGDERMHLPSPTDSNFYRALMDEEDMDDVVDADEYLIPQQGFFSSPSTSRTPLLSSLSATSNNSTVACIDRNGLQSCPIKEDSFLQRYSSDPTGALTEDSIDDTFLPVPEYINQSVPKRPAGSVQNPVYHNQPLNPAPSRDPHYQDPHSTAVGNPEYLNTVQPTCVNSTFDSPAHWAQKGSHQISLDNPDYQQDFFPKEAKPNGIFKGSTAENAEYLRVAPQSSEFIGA

[4] = target: Receptor tyrosine-protein kinase erbB-2 (Homo sapiens, UniProt P04626); format: cell-based; conditions: insect cells;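 also: inhibition of HER2 kinase enzyme activity, measured with Poly(Glu:Tyr) as the phosphorylation substrate; in other assays of this panel Not Active means under 50% inhibition at 10 µM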
Sequence of Receptor tyrosine-protein kinase erbB-2 (P04626 whole entry): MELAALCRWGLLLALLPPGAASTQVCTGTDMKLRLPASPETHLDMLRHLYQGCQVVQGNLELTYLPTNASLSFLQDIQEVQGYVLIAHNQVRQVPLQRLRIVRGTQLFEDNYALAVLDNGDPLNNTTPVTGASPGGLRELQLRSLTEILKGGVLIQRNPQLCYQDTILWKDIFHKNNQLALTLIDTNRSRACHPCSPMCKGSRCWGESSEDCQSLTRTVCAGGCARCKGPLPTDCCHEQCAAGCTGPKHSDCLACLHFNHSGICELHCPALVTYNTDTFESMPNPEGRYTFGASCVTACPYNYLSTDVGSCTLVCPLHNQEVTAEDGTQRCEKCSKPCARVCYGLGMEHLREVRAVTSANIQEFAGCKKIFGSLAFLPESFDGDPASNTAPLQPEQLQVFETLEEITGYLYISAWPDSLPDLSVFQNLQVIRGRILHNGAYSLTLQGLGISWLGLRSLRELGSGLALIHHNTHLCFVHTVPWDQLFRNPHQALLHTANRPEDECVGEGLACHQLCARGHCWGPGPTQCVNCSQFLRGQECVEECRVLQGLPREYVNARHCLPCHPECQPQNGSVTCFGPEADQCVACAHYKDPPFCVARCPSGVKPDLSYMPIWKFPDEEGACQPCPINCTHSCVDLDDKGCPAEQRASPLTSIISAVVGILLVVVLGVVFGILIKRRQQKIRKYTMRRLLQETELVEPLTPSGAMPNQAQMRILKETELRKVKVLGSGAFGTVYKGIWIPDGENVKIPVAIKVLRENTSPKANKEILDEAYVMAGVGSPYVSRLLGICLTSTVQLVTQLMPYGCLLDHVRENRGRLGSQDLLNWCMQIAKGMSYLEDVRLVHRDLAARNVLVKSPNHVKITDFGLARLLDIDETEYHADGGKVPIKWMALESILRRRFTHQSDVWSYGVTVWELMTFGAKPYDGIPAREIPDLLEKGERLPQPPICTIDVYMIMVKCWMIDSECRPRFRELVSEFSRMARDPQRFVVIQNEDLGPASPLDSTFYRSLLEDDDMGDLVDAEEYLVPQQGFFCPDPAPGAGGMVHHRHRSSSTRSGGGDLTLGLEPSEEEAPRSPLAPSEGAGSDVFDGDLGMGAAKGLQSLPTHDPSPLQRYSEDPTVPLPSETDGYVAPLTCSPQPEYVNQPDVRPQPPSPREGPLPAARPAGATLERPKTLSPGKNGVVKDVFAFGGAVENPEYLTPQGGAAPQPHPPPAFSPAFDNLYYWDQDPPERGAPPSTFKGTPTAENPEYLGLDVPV

[5] = target: T2, Amine oxidase [flavin-containing] A (Homo sapiens, UniProt P21397); assay: DRUGMATRIX: Monoamine Oxidase MAO-A enzyme inhibition (substrate: Kynuramine); parameters: species or system BTI-TN-5B1-4; conditions: bti-tn-5b1-4; Not Active = under 50% inhibition at 10 µM
T2 sequence (P21397 whole entry): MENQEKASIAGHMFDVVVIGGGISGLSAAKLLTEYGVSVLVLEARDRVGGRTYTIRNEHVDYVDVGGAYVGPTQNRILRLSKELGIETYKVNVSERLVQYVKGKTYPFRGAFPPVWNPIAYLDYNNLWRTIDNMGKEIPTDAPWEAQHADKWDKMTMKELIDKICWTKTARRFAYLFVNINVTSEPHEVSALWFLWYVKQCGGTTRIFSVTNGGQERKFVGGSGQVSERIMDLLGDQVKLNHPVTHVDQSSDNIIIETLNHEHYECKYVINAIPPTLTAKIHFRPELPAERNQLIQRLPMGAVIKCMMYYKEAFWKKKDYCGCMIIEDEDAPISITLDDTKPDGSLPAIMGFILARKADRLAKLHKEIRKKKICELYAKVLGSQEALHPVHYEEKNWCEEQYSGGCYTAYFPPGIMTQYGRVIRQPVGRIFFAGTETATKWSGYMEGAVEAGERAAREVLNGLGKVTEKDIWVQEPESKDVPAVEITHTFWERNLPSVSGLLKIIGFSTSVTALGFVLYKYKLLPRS

SMILES	IC50 (Adenosine receptor A3; cho-k1)	IC50 [1]	Ki [1]	IC50 (Glycine receptor)	IC50 [2]	IC50 ([3]; insect cells)	IC50 [4]	IC50 [5]	IC50 ([3]; read-out: IC50)	IC50 (Adenosine receptor A3; read-out: IC50)	Ki (Adenosine receptor A3)
CC#C[C@]1(O)CC[C@H]2[C@@H]3CCC4=CC(=O)CCC4=C3[C@@H](c3ccc(N(C)C)cc3)C[C@@]21C [MIFEPRISTONE]	Not Active	Not Active	Not Active	Not Active	Not Active	Not Active	Not Active	Not Active	–	–	–
CC[C@@]1(O)C(=O)OCc2c1cc1n(c2=O)Cc2cc3c(CN(C)C)c(O)ccc3nc2-1 [TOPOTECAN]	Not Active	Not Active	Not Active	Not Active	Not Active	Not Active	Not Active	Not Active	–	–	–
Nc1nc(N)c2nc(-c3ccccc3)c(N)nc2n1	Not Active	Not Active	Not Active	Not Active	Not Active	Not Active	Not Active	Not Active	–	–	–
Cc1cc2c(s1)Nc1ccccc1N=C2N1CCN(C)CC1 [OLANZAPINE]	Not Active	–	–	Not Active	Not Active	Not Active	Not Active	Not Active	–	–	–
CC[C@H](C)[C@@H](CO[C@@H](Cc1ccccc1)C(=O)N[C@@H](CCS(C)(=O)=O)C(=O)OC(C)C)NC[C@@H](N)CS	Not Active	Not Active	Not Active	Not Active	Not Active	–	Not Active	Not Active	3220 nM	–	–
CO[C@@]12[C@H](COC(N)=O)C3=C(C(=O)C(C)=C(N)C3=O)N1C[C@@H]1N[C@@H]12 [MITOMYCIN]	Not Active	Not Active	Not Active	Not Active	Not Active	Not Active	Not Active	Not Active	–	–	–
CCOC(=O)C1=C(C)NC(C)=C(C(=O)OCC)C1c1ccccc1/C=C/C(=O)OC(C)(C)C [LACIDIPINE]	–	Not Active	Not Active	Not Active	Not Active	Not Active	Not Active	Not Active	–	4040 nM	2280 nM
Cc1cn([C@H]2C=C[C@@H](CO)O2)c(=O)[nH]c1=O [STAVUDINE]	Not Active	Not Active	Not Active	Not Active	Not Active	Not Active	Not Active	Not Active	–	–	–
C#C[C@]1(O)CC[C@H]2[C@@H]3[C@H](C)CC4=C(CCC(=O)C4)[C@H]3CC[C@@]21C [TIBOLONE]	Not Active	Not Active	Not Active	Not Active	Not Active	Not Active	Not Active	Not Active	–	–	–
CC(O)C(=O)O (stereo not drawn) [LACTIC ACID]	Not Active	Not Active	Not Active	Not Active	Not Active	Not Active	Not Active	Not Active	–	–	–
O=C(O)c1cc(/N=N/c2ccc(S(=O)(=O)Nc3ccccn3)cc2)ccc1O [SULFASALAZINE]	Not Active	Not Active	Not Active	Not Active	Not Active	Not Active	Not Active	Not Active	–	–	–
CCN(CC)C(=S)SSC(=S)N(CC)CC	–	Not Active	Not Active	Not Active	Not Active	Not Active	Not Active	–	–	356 nM	201 nM
CNCCCC12CCC(c3ccccc31)c1ccccc12 [MAPROTILINE]	Not Active	–	–	Not Active	Not Active	Not Active	Not Active	Not Active	–	–	–
Cc1ccc(Cl)c(Nc2ccccc2C(=O)O)c1Cl [MECLOFENAMIC ACID]	Not Active	Not Active	Not Active	Not Active	Not Active	Not Active	Not Active	Not Active	–	–	–
CC(C)(C)NC[C@H](O)COc1cccc2c1CCCC2=O [LEVOBUNOLOL]	Not Active	Not Active	Not Active	Not Active	Not Active	Not Active	Not Active	Not Active	–	–	–
Cc1cccc(C)c1NC(=O)C(C)N (stereo not drawn) [TOCAINIDE]	Not Active	Not Active	Not Active	Not Active	Not Active	Not Active	Not Active	Not Active	–	–	–
CCOc1cc(N)c(Cl)cc1C(=O)NCC1CN(Cc2ccc(F)cc2)CCO1 (stereo not drawn) [MOSAPRIDE]	Not Active	Not Active	Not Active	Not Active	Not Active	Not Active	Not Active	Not Active	–	–	–
Cc1cnc(NC(=O)C2=C(O)c3ccccc3S(=O)(=O)N2C)s1 [MELOXICAM]	Not Active	Not Active	Not Active	Not Active	Not Active	Not Active	Not Active	Not Active	–	–	–
O=C1CC[C@@]2(O)[C@H]3Cc4ccc(O)c5c4[C@@]2(CCN3CC2CC2)[C@H]1O5 [NALTREXONE]	Not Active	Not Active	Not Active	Not Active	Not Active	Not Active	Not Active	Not Active	–	–	–
O=C(c1ccccc1)c1ccc2n1CCC2C(=O)O (stereo not drawn) [KETOROLAC]	Not Active	Not Active	Not Active	Not Active	Not Active	Not Active	Not Active	Not Active	–	–	–
Oc1ccc(/C=C/c2cc(O)cc(O)c2)cc1 [RESVERATROL]	Not Active	Not Active	Not Active	Not Active	Not Active	Not Active	Not Active	–	–	–	–
CN1C(=O)OC(C)(C)C1=O [TRIMETHADIONE]	Not Active	Not Active	Not Active	Not Active	Not Active	Not Active	Not Active	Not Active	–	–	–
Cc1[nH]c(=O)c(C#N)cc1-c1ccncc1 [MILRINONE]	Not Active	Not Active	Not Active	Not Active	Not Active	Not Active	Not Active	Not Active	–	–	–
C[C@]12CCC(=O)C[C@@H]1CC[C@@H]1[C@@H]2CC[C@]2(C)[C@@H](O)CC[C@@H]12 [STANOLONE]	Not Active	Not Active	Not Active	Not Active	Not Active	Not Active	Not Active	Not Active	–	–	–
CCN(CC)CCNC(=O)c1cc(Cl)c(N)cc1OC [METOCLOPRAMIDE]	Not Active	Not Active	Not Active	Not Active	Not Active	Not Active	Not Active	Not Active	–	–	–
CN(C)CCC=C1c2ccccc2COc2ccccc21 [DOXEPIN]	Not Active	–	–	Not Active	Not Active	Not Active	Not Active	Not Active	–	–	–
COC(=O)Nc1nc2ccc(C(=O)c3ccccc3)cc2[nH]1 [MEBENDAZOLE]	Not Active	Not Active	Not Active	Not Active	Not Active	–	Not Active	Not Active	–	–	–
O=[As][O-].[Na+] [SODIUM ARSENITE]	Not Active	Not Active	Not Active	Not Active	Not Active	Not Active	Not Active	Not Active	–	–	–
CS(=O)(=O)c1ccc(C2=C(c3ccccc3)C(=O)OC2)cc1 [ROFECOXIB]	Not Active	Not Active	Not Active	Not Active	Not Active	Not Active	Not Active	Not Active	–	–	–
CC1(C)[C@H](C(=O)O)N2C(=O)C[C@H]2S1(=O)=O [SULBACTAM]	Not Active	Not Active	Not Active	Not Active	Not Active	Not Active	Not Active	Not Active	–	–	–
